Data set [1] relates to Alpha 1 adrenergic receptor. As to the kind of experiment: Rabbit Aorta: Alpha 1 adrenergic receptor assay. The following applies: rabbit thoracic aorta rings, 37° C. From the text:
The vasoconstrictive properties of the compounds of the present invention, i.e. their ability to reduce or control intraocular bleeding, are established by the rabbit aorta: alpha 1 adrenergic receptors in vivo assay procedure, which is recognized in the art to be indicative of the in vivo activity of the tested compounds as vaso-constrictors or as anti intraocular bleeding agents.
Thoracic aorta specimens were obtained form albino rabbits that were killed by CO2 inhalation. The aorta was cut into 3 mm rings. Tissues were placed in Krebs-Hensleit solution of the following composition (millimolar): NaCl 119; KCl 4.7; MgSO4 1.5, KH2 PO4 1.2; CaCl2 2.5; NaHCO3 25 and glucose 11.0. The solution also contained cocaine (0.1 millimolar) to block neuronal uptake and EDTA (30 micromolar) and ascorbic acid (5 micromolar) to prevent oxidation of the compound being tested. Tissues were hung in 10 ml organ baths and tension was measured via Grass FT03 force-displacement transducers. Resting tension was 2 g for the aorta. The solution was gassed with 95% O2 and 5% CO2 and maintained at 37° C. Tissues were allowed to equilibrate for 2 hours before stimulation and the cumulative addition of the compound to be tested (aryl oxazoline) was started. Tissue stimulation was performed using a square wave stimulator (WPI A310) Accupulser with A385 stimulus) at 0.1 Hz, 2 ms pulse width at 90 mA.

In data set [2] the target is T1, alpha-2 adrenergic receptor (Oryctolagus cuniculus, UniProt Q5ZQK3).
T1 construct: The prostatic ends of the vasa deferentia (2-3 cm lengths) were mounted between platinum ring electrodes; from tissue; host or cells: prostatic ends of vasa deferentia of New Zealand white rabbits
T1 sequence (Q5ZQK3 1-451): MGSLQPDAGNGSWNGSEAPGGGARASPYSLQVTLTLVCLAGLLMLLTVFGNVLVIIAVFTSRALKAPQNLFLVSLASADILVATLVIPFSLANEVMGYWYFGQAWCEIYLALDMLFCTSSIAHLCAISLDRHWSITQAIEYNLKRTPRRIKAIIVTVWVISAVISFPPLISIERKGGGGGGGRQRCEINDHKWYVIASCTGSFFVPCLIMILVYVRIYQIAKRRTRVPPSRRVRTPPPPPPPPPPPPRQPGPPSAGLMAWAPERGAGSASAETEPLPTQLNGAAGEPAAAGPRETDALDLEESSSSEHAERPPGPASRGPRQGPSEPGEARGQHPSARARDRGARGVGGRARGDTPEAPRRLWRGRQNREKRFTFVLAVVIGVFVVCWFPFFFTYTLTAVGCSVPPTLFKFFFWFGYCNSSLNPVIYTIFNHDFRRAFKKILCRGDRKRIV
Nature of the data set: Rabbit Vas Deferens Assay (alpha-2 adrenergic receptor activity). Set-up: species or system New Zealand white rabbit. To be noted: field-stimulated rabbit vas deferens, 35 degrees C, 4 minute contact time; read-out: EC50 (effective concentration required for a 50% reduction in response height). The method, then: (§1) The test procedure for alpha-2 adrenergic receptor activity of the compounds of the present invention is the rabbit vas deferens assay which is described as follows:
(§2) New Zealand white rabbits (2-3 kg) were killed by CO2 inhalation and the vasa deferentia removed. The prostatic ends of the vasa deferentia (2-3 cm lengths) were mounted between platinum ring electrodes in 9 ml organ baths and bathed in Krebs bicarbonate solution of the following composition (millimolar): NaCl 118.0; KCl 4.7; CaCl2 2.5; MgSO4 1.2; KH2 PO4 1.2; glucose 11.0; NaHCO3 25.0; which solution was maintained at 35 degrees C and bubbled with 95% O2 and 5% CO2. The initial tension of the vas deferens was 0.5 g. The tissues were left to equilibrate for 30 minutes before stimulation was started. […] Cumulative concentration-response curves were obtained for the compounds being tested with a 4 minute contact time at each concentration. The reduction in response height was measured and expressed as a percentage of the height of the response before the addition of the compounds. Concentration response curves for each of the compounds were plotted. The effective concentration required for a 50% reduction in response height, expressed as EC50 were obtained from these curves.

The test system of data set [3] is alpha-2 adrenergic receptor. Described as above. Details: species or system New Zealand white rabbit. To be noted: for Comment (α1/α2 selectivity): Rabbit Vas Deferens table. The procedure: as §1, §2
Another data set has as its system alpha2 -Adrenoreceptor. To be noted: described by Chapleo et al.; cited from earlier work.
Data set [4] can be described thus: storage stability of solid. In kind it is physicochemical. To be noted: stored in the dark at 0° C.
The next data set concerns intraocular pressure. As to the kind of experiment: intraocular pressure (anti-glaucoma) assay, topical unilateral administration. The data set is classed as in vivo, monkey or New Zealand white rabbit. The procedure:
The anti-glaucoma activity (ability to maintain or reduce intraocular pressure) of the compounds of the present invention is established by the following assay pressure. This assay procedure is generally recognized in the art to provide pertinent information with respect to the anti-glaucomaactivity of the formulations assayed. Thus, each of the compounds of the invention to be tested was dissolved in distilled water at a concentration of 0.3% (W/V). Each of these solutions was administered topically and unilaterally to one eye of a drugnaive, unanesthetized monkey or New Zealand white rabbit in a single 50 micro liter drop. The contralateral eye received an equal volume of saline prior to determining the intraocular pressure after the mixture was administered. Also, approximately 10 micro liters of 0.5% (W/V) proparacaine (topical anesthetic) was applied to the corneas of each of the animals before determining intraocular pressure. As a control test, six (6) other drug-naive, unanesthetized animals were treated and tested as described above except that no compound of the invention was included in the solutions administered to the eyes.
The intraocular pressure was determined in both eyes of each animal both before and after the solutions were administered. Such intraocular pressure determinations were made in the conventional manner using conventional equipment.

The mark [5] stands for this setting: Contralateral (Untreated) Eye, 0.3% (W/V) to the other eye.
Setting [6] is: Ipsilateral (Treated) Eye, 0.3% (W/V), single 50 micro liter drop.

Structures can show the parent of a compound that is named as a salt. Bounds are passed on as bounds.

The values that follow come from patent publication US5091528A, “6- or 7- (2-imino-2-imidazolidine)-1,4-benzoxazines as α adrenergic agents” (Allergan, Inc., priority 1990, dated 1992).

Take `Brc1cc2c(cc1N=C1NCCN1)OCCN2` [Example 7, 6-bromo-7-(2-imino-2-imidazolidine)-3,4-dihydro-(2H)-1,4-benzoxazine]: the EC50 was 39 ± 6.36 nM in data set [1] and > 10000 nM in data set [2]. Moreover, the “Comment (α1/α2 selectivity)” value in data set [3] was “α1 Selective”.
With `O=C1COc2cc(N=C3NCCN3)c(Br)cc2N1` [Example 4, 6-Bromo-7-(2-imino-2-imidazolidine)-3-oxo-3,4-dihydro-(2H)-1,4-benzoxazine,hydrobromide], the EC50 in data set [1] came to 1120 ± 457 nM; in data set [2], 167 ± 56.1 nM. Besides, the “Comment (α1/α2 selectivity)” value in data set [3] was “α2 Selective”.
Take `O=C1COc2cc(N=C3NCCN3)ccc2N1` [Example 3, 7-2(2-imino-2-imidazolidine)-3-oxo-3,4-dihydro-(2H)-1,4-benzoxazine]: in the data set on alpha2 -Adrenoreceptor, the alpha-2 agonist activity entry is “partial alpha-2 agonists”.
Regarding `O=S(=O)(O)C1=NCCN1` [Imidazoline-2-sulfonic acid], in data set [4], the “stability of solid on storage” value is given as “at least 6 months”.
As for `Cc1cc2c(cc1N=C1NCCN1)NC(=O)CO2` [Example 39, 7-methyl-6(2-imino-2-imidazolidine)-3-oxo-3,4-dihydro-(2H)-1,4-benzoxazine], the EC50 in data set [1] was 5690 ± 956 nM; in data set [2] it was 74.6 ± 43.6 nM. Also, the “Comment (α1/α2 selectivity)” value in data set [3] is “α2 Selective”.
Take `O=C1COc2c(cc(Br)c(N=C3NCCN3)c2Br)N1` [Example 5, 6,8-dibromo-7-(2-imino-2-imidazolidine)-3-oxo-3,4-dihydro-(2H)-1,4-benzoxazine]: the EC50 in data set [1] was 3.41 ± 0.5 nM; in data set [2], 0.59 ± 0.14 nM. Besides, the “Comment (α1/α2 selectivity)” value in data set [3] is listed as “Non-Selective”. For the same molecule, in data set [3] (printed "Potent- Vasoconstrictor" on two lines), the “Comment (vasoconstrictor activity)” value is “Vasoconstrictor”.
As to `CCCc1c(N=C2NCCN2)ccc2c1NC(=O)CO2` [Example 56, 5-Propyl-6-(2-imino-2-imidazolidine)-3-oxo-3,4-dihydro-(2H)-1,4-benzoxazine], the EC50 in data set [1] came to 1120 ± 94.1 nM; in data set [2], 18.1 ± 1.21 nM. The “Comment (α1/α2 selectivity)” value in data set [3] is listed as “α2 Selective”.
On to `CN1C(=O)COc2cc(Br)c(N=C3NCCN3)cc21` [Example 31, 7-bromo-4-methyl-6-(2-imino-imidazolidine)-3-oxo-3,4-dihydro-(2H)-1,4-benzoxazine], for which the “Duration of IOP decrease” value with intraocular pressure (setting [5]) was 1 h; with intraocular pressure (setting [6]) it was 1 to 6 h. For the same molecule, the “Maximum Difference in Intraocular Pressure After Solution Administration, % Decrease in IOP from Control” value stood at 6.8 ± 1.8% in the data set on intraocular pressure (setting [5]) and 14 ± 2.5% with intraocular pressure (setting [6]). In addition, the figures for the EC50 in data set [1] and in data set [2] were 2740 ± 1430 nM and 41.5 ± 24.4 nM, respectively. The “Comment (α1/α2 selectivity)” value in data set [3] is “α2 Selective”.
For `CN1C(=O)COc2cc(N=C3NCCN3)c(Br)cc21` [Example 22, 4-methyl-6-bromo-7-(2-imino-imidazolidine)-3-oxo-3,4-dihydro-2H-1,4-benzoxazinehydrobromide], the “Duration of IOP decrease” value in the data set on intraocular pressure (setting [5]) was 1 h; with intraocular pressure (setting [6]) it was 1 to 2 h. For the same molecule, the “Maximum Difference in Intraocular Pressure After Solution Administration, % Decrease in IOP from Control” value in the data set with intraocular pressure (setting [5]) turned out to be 5.7 ± 2.0%; with intraocular pressure (setting [6]) it was 11.5 ± 2.7%. For the same molecule, the values for the EC50 in data set [1] and in data set [2] were 1430 ± 891 nM and 105 ± 35.5 nM, respectively. In addition, in data set [3], the “Comment (α1/α2 selectivity)” value is “α2 Selective”.
For `O=C1COc2cc(Br)c(N=C3NCCN3)c(Br)c2N1` [Example 14, 5,7-dibromo-6-(2-imino-2-imidazolidine)-3-oxo-3,4-dihydro-2H-1,4-benzoxazin], the figures for the EC50 in data set [1] and in data set [2] were > 100000 nM and 48.5 ± 20.6 nM, respectively. For the same molecule, the “Comment (α1/α2 selectivity)” value in data set [3] is reported as “α2 Selective”.
Turning to `CCc1cc2c(cc1N=C1NCCN1)NC(=O)CO2` [Example 50, 7-Ethyl-6-(2-imino-2-imidazolidine)-3-oxo-3,4-dihydro-(2H)-1,4-benzoxazine], the EC50 came to 940 ± 18.5 nM in data set [1] and 8.92 ± 3.11 nM in data set [2]. In addition, the “Comment (α1/α2 selectivity)” value in data set [3] was “α2 Selective”.
For the molecule `O=C1COc2ccc(N=C3NCCN3)cc2N1` [Example 12, 6-(2-imino-2-imidazlidine)-3-oxo-3,4-dihydro-(2H)-1,4-benzoxazine], the alpha-2 agonist activity entry with alpha2 -Adrenoreceptor is “partial alpha-2 agonists”.
